The supplement of paper PMC6045584
± gives the standard deviation of the averaged measurements.

Key:
[1] = compound: CC(=O)NCC(=O)N1[C@@H]2CC[C@H]1c1ccc(Nc3ncc(C(F)(F)F)c(NC4CCC4)n3)cc12; test: surviving fraction relative to DMSO-only wells; higher = less growth inhibition; conditions: exposure time: 5 days
Procedure, shortened: (§1)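 Surviving fraction is CellTiter-Glo luminescence divided by the median of wells given DMSO only. For this, log-phase tumour cell lines went into 384-well plates at 250–500 cells per well and, 24 hours later, into five days of continuous inhibitor exposure at 0.5, 1, 5, 10, 50, 100, 500 and 1000 nM. Lines were screened three times and retained only if replicate Pearson r >0.7 and median Z' >0.3.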

CAMPTOTHECIN = compound: CC[C@@]1(O)C(=O)OCc2c1cc1n(c2=O)Cc2cc3ccccc3nc2-1 [CAMPTOTHECIN]; test: as above; conditions: exposure time: 5 days
Procedure, shortened: as §1

| Test System | surviving fraction ([1]; 0.5 nM) | surviving fraction ([1]; 1 nM) | surviving fraction ([1]; 5 nM) | surviving fraction ([1]; 10 nM) | surviving fraction ([1]; 50 nM) | surviving fraction ([1]; 100 nM) | surviving fraction ([1]; 500 nM) | surviving fraction ([1]; 1000 nM) | surviving fraction (CAMPTOTHECIN; 0.5 nM) | surviving fraction (CAMPTOTHECIN; 1 nM) | surviving fraction (CAMPTOTHECIN; 5 nM) | surviving fraction (CAMPTOTHECIN; 10 nM) | surviving fraction (CAMPTOTHECIN; 50 nM) | surviving fraction (CAMPTOTHECIN; 100 nM) | surviving fraction (CAMPTOTHECIN; 500 nM) | surviving fraction (CAMPTOTHECIN; 1000 nM) |
| --- | --- | --- | --- | --- | --- | --- | --- | --- | --- | --- | --- | --- | --- | --- | --- | --- |
| SCC47 HEADNECK | 0.82 ± 0.0084 | 0.815 ± 0.033 | 1.01 ± 0.099 | 0.974 ± 0.1 | 1.01 ± 0.086 | 0.904 ± 0.058 | 0.542 ± 0.02 | 0.521 ± 0.047 | 0.917 ± 0.019 | 0.924 ± 0.086 | 0.959 ± 0.019 | 0.919 ± 0.016 | 0.46 ± 0.012 | 0.375 ± 0.029 | 0.204 ± 0.0038 | 0.118 ± 0.0095 |
| MCF7 BREAST | 0.864 ± 0.018 | 0.858 ± 0.028 | 0.808 ± 0.034 | 0.826 ± 0.021 | 0.776 ± 0.018 | 0.741 ± 0.027 | 0.656 ± 0.035 | 0.549 ± 0.026 | 0.731 ± 0.032 | 0.824 ± 0.025 | 0.696 ± 0.079 | 0.556 ± 0.01 | 0.39 ± 0.0082 | 0.354 ± 0.011 | 0.0642 ± 0.0025 | 0.0648 ± 0.0052 |
| 143B BONE | 0.98 ± 0.021 | 0.996 ± 0.013 | 1.01 ± 0.026 | 0.966 ± 0.018 | 0.868 ± 0.0085 | 0.928 ± 0.015 | 0.597 ± 0.039 | 0.495 ± 0.056 | 0.911 ± 0.076 | 0.9815 ± 0.00071 | 0.947 ± 0.025 | 0.83 ± 0.07 | 0.12 ± 0.005 | 0.0595 ± 0.0064 | 0.021 | 0.0245 ± 0.00071 |
| OS25HAL BONE | 0.962 ± 0.045 | 0.9613 ± 0.0038 | 0.97 ± 0.024 | 0.947 ± 0.015 | 0.796 ± 0.062 | 0.605 ± 0.092 | 0.428 ± 0.069 | 0.264 ± 0.029 | 0.877 ± 0.013 | 0.862 ± 0.037 | 0.475 ± 0.03 | 0.145 ± 0.022 | 0.055 ± 0.001 | 0.0397 ± 0.0093 | 0.0247 ± 0.0032 | 0.037 ± 0.0069 |
| SUM149.B1*.S BREAST | 1 ± 0.017 | 1.01 ± 0.037 | 0.979 ± 0.017 | 0.976 ± 0.038 | 0.938 ± 0.047 | 0.685 ± 0.049 | 0.569 ± 0.024 | 0.499 ± 0.043 | 0.467 ± 0.023 | 0.853 ± 0.024 | 0.692 ± 0.075 | 0.301 ± 0.021 | 0.0407 ± 0.0027 | 0.0422 ± 0.0024 | 0.0262 ± 0.0016 | 0.0295 |
| HSSYII SYNOVIAL | 0.921 ± 0.035 | 0.8998 ± 0.0079 | 0.886 ± 0.044 | 0.851 ± 0.05 | 0.438 ± 0.017 | 0.222 ± 0.015 | 0.177 ± 0.015 | 0.185 ± 0.0066 | 0.187 ± 0.025 | 0.686 ± 0.035 | 0.213 ± 0.011 | 0.12 ± 0.0066 | 0.0273 ± 0.0023 | 0.0507 ± 0.0042 | 0.0363 ± 0.001 | 0.0383 ± 0.0038 |
| DU4475 BREAST | 0.776 ± 0.12 | 0.802 ± 0.15 | 0.821 ± 0.16 | 0.783 ± 0.2 | 0.49 ± 0.36 | 0.131 ± 0.097 | 0.0413 ± 0.016 | 0.0397 ± 0.0038 | 0.759 ± 0.11 | 0.643 ± 0.064 | 0.28 ± 0.055 | 0.135 ± 0.018 | 0.0357 ± 0.0042 | 0.0227 ± 0.0045 | 0.0217 ± 0.0015 | 0.0247 ± 0.0025 |
| HCC1954 BREAST | 0.891 ± 0.079 | 0.784 ± 0.085 | 1.17 ± 0.054 | 0.986 ± 0.042 | 0.828 ± 0.022 | 0.745 ± 0.14 | 1.07 ± 0.021 | 0.905 ± 0.11 | 0.381 ± 0.037 | 0.362 ± 0.0088 | 0.484 ± 0.033 | 0.517 ± 0.037 | 0.245 ± 0.046 | 0.172 ± 0.011 | 0.0478 ± 0.0088 | 0.0365 ± 0.0021 |
| CASKI CERVIX | 0.928 ± 0.014 | 0.939 ± 0.042 | 0.968 ± 0.072 | 0.946 ± 0.067 | 0.771 ± 0.049 | 0.214 ± 0.018 | 0.199 ± 0.015 | 0.133 ± 0.0061 | 0.798 ± 0.11 | 0.821 ± 0.062 | 0.575 ± 0.054 | 0.38 ± 0.035 | 0.0697 ± 0.0057 | 0.0273 ± 0.00058 | 0.018 | 0.0217 ± 0.0011 |
| A549 LUNG | 0.952 ± 0.013 | 0.93 ± 0.018 | 0.906 ± 0.016 | 0.911 ± 0.014 | 0.686 ± 0.024 | 0.65 ± 0.031 | 0.585 ± 0.014 | 0.445 ± 0.022 | 0.909 ± 0.032 | 0.933 ± 0.021 | 0.964 ± 0.017 | 0.681 ± 0.018 | 0.2 ± 0.0097 | 0.121 ± 0.002 | 0.037 ± 0.003 | 0.026 ± 0.001 |
